# Laboratory results from ChEMBL document CHEMBL1156829 (Proc Natl Acad Sci U S A, 2008).
# Where a name gives a salt, the structure may show the parent alone. Bridge positions count the residues as written; N and C are the ends. Square brackets hold non-standard residues; d marks the D form. Peptide text beside a SMILES is read from it.
# What was measured:
# Plasmodium falciparum [1] = test: NOVARTIS: Inhibition of Plasmodium falciparum 3D7 (drug-susceptible) proliferation in erythrocyte-based infection assay; assay type: functional, organism-based; settings: Plasmodium falciparum, 3D7
# Plasmodium falciparum [2] = test: NOVARTIS: Inhibition of Plasmodium falciparum W2 (drug-resistant) proliferation in erythrocyte-based infection assay; assay type: functional, organism-based; settings: Plasmodium falciparum, W2; read-out: EC50
# [3] = NOVARTIS: Cytotoxicity against human hepatocellular carcinoma cell line (Huh7); assay type: toxicity, cell-based, Huh-7; settings: Huh7 cells (hepatocellular carcinoma cell line)
Compound,EC50 (Plasmodium falciparum [1]),EC50 (Plasmodium falciparum [2]),CC50 [3]
CCCCNC(=O)C1CCC(CN(Cc2c(Cl)cccc2Cl)S(=O)(=O)c2ccc(Br)cc2)CC1 (stereo unspecified),0.546 µM,0.916 µM,> 100 µM
COc1cccc(NC(=O)c2ccc(NCCCC3CCCCCC3)c([N+](=O)[O-])c2)c1,0.226 µM,0.391 µM,28.8 µM
COc1ccc(C2=C(c3ccc(OC)cc3)C3(c4ccccc4)C(=O)C2(c2ccccc2)C2C(=O)N(c4ccc(C)cc4)C(=O)C23)cc1 (stereo unspecified),> 12.5 µM,1.49 µM,> 100 µM
Clc1ccc2c(c1)c1cc(Cl)ccc1n2CC1CO1 (stereo unspecified),0.341 µM,0.277 µM,57.4 µM
Cc1onc(O)c1CC(N)C(=O)O (stereo unspecified),0.158 µM,0.302 µM,> 10 µM
OC(Cn1cnc(-c2ccccc2)c1-c1ccccc1)Cn1c2ccc(Br)cc2c2cc(Br)ccc21 (stereo unspecified),0.952 µM,0.0532 µM,> 100 µM
CC(Cl)=CC[N+]1(CC#Cc2cccc3ccccc23)CCOCC1,1.16 µM,1 µM,> 100 µM
COC(=O)C[S+]([O-])c1ccccc1 (stereo unspecified),0.647 µM,0.543 µM,> 10 µM
CCOC(=O)COc1ccc(C2NC(=S)NC(C)=C2C(C)=O)cc1OC (stereo unspecified),4.03 µM,0.496 µM,> 100 µM
Cc1cccc(N2CCN(c3nc4ccccc4c4nnc(C)n34)CC2)c1C,4.4 µM,0.943 µM,> 100 µM
COC(=O)C1=C(C)NC2=C(C(=O)CC(c3ccc(OC)c(OC)c3)C2)C1c1cccc(Cl)c1Cl (stereo unspecified),0.207 µM,0.0937 µM,> 100 µM
CCOc1ccc2nc(C)cc(Nc3ccc(N(C)C)cc3)c2c1,0.344 µM,0.662 µM,16.6 µM
Nc1nonc1-n1nnc(C(=O)NN=Cc2cccc(Cl)c2)c1-c1ccccc1,0.427 µM,0.441 µM,> 100 µM
CCCCCCc1ccc(C(=O)NCCCCNc2ccnc3cc(Cl)ccc23)cc1,0.241 µM,0.169 µM,> 10.8 µM
CC1CC(C)CC(C)C(O)C(C#N)=CC=CCC(C2CCCC2C(=O)O)OC(=O)CC(O)C(C)C1 (stereo unspecified),0.0437 µM,> 1.25 µM,2.85 µM
CC(C)c1ccc(NC(=O)C(Cc2cccs2)c2nnn[nH]2)cc1 (stereo unspecified),11.3 µM,1.57 µM,> 100 µM
Cc1ccc(NC(c2ccccc2)(c2ccccc2)c2ccccc2)cc1C,0.439 µM,0.207 µM,> 100 µM
c1cncc(-c2nc3cc(-c4ccc5[nH]c(-c6cccnc6)nc5c4)ccc3[nH]2)c1,1.41 µM,1.29 µM,> 10 µM
CCOc1ccc2nc(C)cc(Nc3ccc(OCc4ccccc4Cl)cc3)c2c1,0.142 µM,0.357 µM,5.84 µM
Cc1c(Cl)cccc1NC(=O)c1cccnc1Cl,> 1.25 µM,> 1.15 µM,> 10 µM
COc1ccc(Cl)cc1-n1c(-c2cccnc2)n[nH]c1=S,1.87 µM,> 1.25 µM,> 10 µM
CCOC(=O)CCS(=O)(=O)c1ccc(Br)cc1,0.237 µM,> 1.46 µM,> 10 µM
CCOCc1nnc(NC(=O)COc2ccc(Cl)cc2Cl)s1,> 12.5 µM,6.42 µM,> 100 µM

Compound,EC50 (Plasmodium falciparum [1]),EC50 (Plasmodium falciparum [2]),CC50 [3]
Cc1ccc(C(=O)N(C)CCCNc2ccnc3cc(Cl)ccc23)cc1,0.141 µM,0.122 µM,5.37 µM
CN(CCCNc1ccnc2cc(Cl)ccc12)C(=O)C1CC1,0.164 µM,0.0467 µM,> 7.25 µM
OC(CNC1CCCCC1)Cn1c2ccc(Cl)cc2c2cc(Cl)ccc21 (stereo unspecified),0.333 µM,0.116 µM,57.3 µM
COc1ccc(OC)c(-c2ccc(O)c(CNC3CCCCC3)c2)c1,0.842 µM,0.953 µM,> 10 µM
CCCCN(CC)CCNC(=O)C1c2ccccc2C(=O)N(Cc2ccc(F)cc2)C1c1ccc(OC)cc1 (stereo unspecified),2.27 µM,0.195 µM,> 100 µM
c1ccc(C2=NN(c3ccccc3)N(c3ccccc3)N2)cc1,0.137 µM,0.129 µM,> 100 µM
O=C(Nc1ccc(-c2nc3cc(-c4nc5ccccc5o4)ccc3[nH]2)cc1)c1ccc([N+](=O)[O-])cc1,1.05 µM,1.2 µM,> 10 µM
CNc1nc(Cl)nc(Nc2ccccc2)n1,> 0.482 µM,1.65 µM,> 10 µM
COc1ccccc1N1CCN(c2ccc(NC(=O)/C=C/c3ccc([N+](=O)[O-])cc3)cc2C(=O)NCCCN(C)C)CC1,0.29 µM,0.121 µM,0.921 µM
CCCCCSc1scc(-c2ccc(O)c(O)c2)[n+]1C,0.254 µM,0.313 µM,> 100 µM
COc1ccc2nc(C)cc(NN=Cc3cccs3)c2c1,0.158 µM,0.134 µM,18.4 µM
COc1cc(/C=C2\SC(c3ccc(C)cc3)=NC2=O)cc(OC)c1OC,> 1.25 µM,> 1.22 µM,> 10 µM
CC(C)C[C@@H]1NC(=O)[C@@H](CC(C)C)NC(=O)[C@H](C(C)C)NC(=O)[C@H]2CSSC[C@@H](NC1=O)C(=O)N2 (cyclo(L[dC][dC]V[dL]); disulfide 2-3),> 1.25 µM,0.164 µM,> 10 µM
COc1ccc(-n2nc3c(c2NC(=O)/C=C\c2cc(OC)c(OC)c(OC)c2)CSC3)cc1,> 0.752 µM,0.0857 µM,> 10 µM
CC(NC(=S)N(Cc1ccco1)Cc1cc2cc3c(cc2[nH]c1=O)OCO3)c1ccccc1 (stereo unspecified),1.37 µM,0.405 µM,> 100 µM
CCCCNC(=O)C(c1cccc(OC)c1)N1C(=O)c2cc(OCCCC)ccc2NC(=O)C1CO (stereo unspecified),0.205 µM,0.168 µM,> 2.37 µM
Cc1nc2ccc(Br)cc2c(O)c1CC(C)C,2.73 µM,2.53 µM,> 100 µM
COc1ccc(C2N=C(N)N=C(N)N2c2ccc(Cl)cc2)cc1OC (stereo unspecified),0.326 µM,> 1.25 µM,> 10 µM
CCN(CC)CCCNCC(=O)N1c2ccccc2Sc2ccccc21,> 12.5 µM,1.25 µM,> 100 µM
Cc1cc(C)n(-c2cc(NN=Cc3cc(Br)ccc3O)nc(C)n2)n1,0.237 µM,0.153 µM,> 100 µM
Cc1cc(Nc2ccc(Cl)c(Cl)c2)n2ncnc2n1,1.68 µM,0.674 µM,> 100 µM
CC(=NNc1nc2ccccc2s1)c1ccc([N+](=O)[O-])cc1,> 0.965 µM,> 0.848 µM,> 10 µM
FC(F)(F)c1ccccc1NC(=S)N1CCCN(c2nc3ccc(Cl)cc3s2)CC1,0.119 µM,0.145 µM,77.8 µM

Compound,EC50 (Plasmodium falciparum [1]),EC50 (Plasmodium falciparum [2]),CC50 [3]
Cc1ccc(NC(=O)N2CCN(CCN(Cc3ccc(F)cc3)C(=O)c3ccccc3C)CC2)cc1,> 1.74 µM,0.818 µM,> 10 µM
CCN(CC)CCCNC(=S)N(CCN(CC)CC)Cc1cc2ccc(C)c(C)c2[nH]c1=O,3.28 µM,> 2.61 µM,51.1 µM
CCc1ccc(NC(=O)COC(=O)c2cccs2)cc1,4.64 µM,1.11 µM,> 100 µM
O=C(C1CCN(S(=O)(=O)c2cccc3nonc23)CC1)N1CCCc2ccccc21,> 1.25 µM,0.534 µM,> 10 µM
COc1ccccc1C(NC(=O)c1cc(OC)c(OC)c(OC)c1)c1cc(Cl)c2cccnc2c1O (stereo unspecified),2.2 µM,1.23 µM,> 100 µM
Cc1ccccc1C(=O)N(CC(=O)Nc1cc(C(C)(C)C)nn1-c1ccccc1Cl)C(C)C,1.09 µM,0.649 µM,> 8.81 µM
COc1ccc(OC)c(C(C(=O)NC2CCCC2)N(C(=O)c2snc(C(N)=O)c2N)c2ccccc2OC)c1 (stereo unspecified),2.54 µM,1.79 µM,> 100 µM
CCN1/C(=C/c2ccc3ccccc3[n+]2CC)Sc2sc3ccccc3c21,0.0992 µM,0.134 µM,4.77 µM
CN1C(=O)N(C)C2(c3ccccc3)NN3C(=NC12c1ccccc1)SC1=C3C(=O)c2ccccc2C1=O (stereo unspecified),2.83 µM,0.0955 µM,> 100 µM
CCOc1ccc(C2C(C(=O)OC)=CNC=C2C(=O)OC)cc1Cl,0.304 µM,0.581 µM,> 100 µM
Cc1ccccc1N(CC(=O)NCC1CCCO1)C(=O)c1snc(C(N)=O)c1N (stereo unspecified),> 0.706 µM,> 1.25 µM,> 2.4 µM
CC1CNC(c2ccc(NC(=O)c3ccc(C(=O)Nc4ccc(C5=NC(C)CN5)cc4)c(N)c3)cc2)=N1 (stereo unspecified),0.047 µM,0.0222 µM,> 10 µM
CCCCc1ccc(C(=O)N(CC(=O)Nc2cc(C(C)(C)C)nn2-c2ccc(Cl)cc2)C(C)C)cc1,> 1.38 µM,> 0.832 µM,> 10 µM
CC[C@H]1CN2CCc3cc(OC)c(OC)cc3[C@@H]2C[C@@H]1C[C@H]1NCCc2cc(O)c(OC)cc21 [CEPHAELINE HYDROBROMIDE],0.00361 µM,0.00423 µM,0.0261 µM
CC(=O)N(C1=C(N2CCCCC2)C(=O)c2ccccc2C1=O)c1cccc(F)c1,0.146 µM,0.109 µM,23.7 µM
Cc1nonc1C(=O)NN=Cc1ccc([N+](=O)[O-])o1,1.73 µM,0.42 µM,49.3 µM
COCCN1C(=O)c2ccccc2C(C(=O)Nc2cccc(C(F)(F)F)c2)C1c1cccs1 (stereo unspecified),3.83 µM,2.65 µM,> 100 µM
O=C(Nc1ccc(-c2cnc(-c3ccc(NC(=O)c4cccc([N+](=O)[O-])c4)cc3)nc2)cc1)c1cccc([N+](=O)[O-])c1,> 0.48 µM,0.681 µM,> 10 µM
O=C(COc1ccc(Cl)cc1)NCc1ccc(CNc2noc3ccccc23)cc1,3.1 µM,7.29 µM,66.2 µM
COc1ccc(N2CCN(C(=O)C3=C(C)C(=O)OC34CCCCC4)CC2)cc1,1.62 µM,> 1.13 µM,> 10 µM
COc1ccc(CC2NCC(O)C2OC(C)=O)cc1 (stereo unspecified),0.0369 µM,0.0485 µM,8.11 µM
